The results in this text go back to ChEMBL document CHEMBL3352083, “Antibacterial activity of novel benzopolycyclic amines” (Bioorg Med Chem, 2015).

Series [1] concerns Staphylococcus aureus. As to the kind of experiment: Antimicrobial activity against Staphylococcus aureus CECT 86 ATCC 12600 incubated for 18 hrs by microplate reader based assay. The series is classed as functional. The settings on record: CECT 86 ATCC 12600, 18 h; for MIC: read-out: MIC100.
Series [2] concerns Pseudomonas aeruginosa. As to the kind of experiment: Antimicrobial activity against Pseudomonas aeruginosa PAO1 CECT 4122 ATCC 15692 incubated for 18 hrs by microplate reader based assay. The conditions noted are these: for MIC: read-out: MIC100. The series is classed as functional.
Series [3] is described as follows: Selectivity index, ratio of CC50 for macrophages (unknown origin) to MIC50 for Staphylococcus aureus CECT 86 ATCC 12600. The class given is functional.
The nature of series [4]: Toxicity against macrophages (unknown origin) assessed as reduction in cell viability after 24 to 48 hrs by MTT assay. The series is classed as cell-based, Macrophage.
The nature of series [5]: Antimicrobial activity against Enterococcus faecalis CECT 481 ATCC 19433 incubated for 18 hrs by microplate reader based assay. The class given is functional, Enterococcus faecalis ATCC 19433. The conditions noted are these: CECT 481, 18 h.
The test system of series [6] is Staphylococcus epidermidis. As to the kind of experiment: Antimicrobial activity against Staphylococcus epidermidis CECT 231 ATCC 1798 incubated for 18 hrs by microplate reader based assay. The conditions noted are these: CECT 231 ATCC 1798, 18 h. The series is classed as functional.
Series [7] in a line: Antimicrobial activity against Streptococcus mutans CECT 479 ATCC 25175 incubated for 18 hrs by microplate reader based assay. The class given is functional, Streptococcus mutans ATCC 25175. The conditions noted are these: CECT 479, 18 h.
Series [8] has as its system Staphylococcus aureus. As to the kind of experiment: Bacteriolytic activity against Staphylococcus aureus CECT 86 ATCC 12600 at 36 uM incubated for 3 hrs by live/dead assay. The class given is functional, organism-based.
The nature of series [9]: Selectivity index, ratio of CC50 for macrophages (unknown origin) to MIC50 for Enterococcus faecalis CECT 481 ATCC 19433. The class given is functional.
Series [10] in a line: Selectivity index, ratio of CC50 for macrophages (unknown origin) to MIC50 for Staphylococcus epidermidis CECT 231 ATCC 1798. The series is classed as functional.
The test system of series [11] is Staphylococcus aureus. As to the kind of experiment: Anti-biofilm activity against Staphylococcus aureus CECT 86 ATCC 12600 incubated for 24 to 48 hrs. The class given is functional.
For series [12], the system named is Burkholderia cenocepacia. As to the kind of experiment: Antimicrobial activity against Burkholderia cenocepacia J2315 incubated for 18 hrs by microplate reader based assay. The series is classed as functional. The conditions noted are these: J2315, 18 h.
Series [13] relates to Staphylococcus aureus. As to the kind of experiment: Antimicrobial activity against methicillin-resistant Staphylococcus aureus incubated for 18 hrs by microplate reader based assay. The class given is functional.
Series [14] in a line: Selectivity index, ratio of CC50 for macrophages (unknown origin) to MIC50 for methicillin-resistant Staphylococcus aureus. The series is classed as functional.
Series [15] in a line: Selectivity index, ratio of CC50 for macrophages (unknown origin) to MIC50 for Streptococcus mutans CECT 479 ATCC 25175. The class given is functional.
The mark [16] stands for this setting: PAO1 CECT 4122 ATCC 15692, 18 h.

Values after ≈ are worked out from the molar mass of the structure shown. Active and inactive are the calls of the source. The calls are words filed in the database; no cut-off is given here.

For orientation: MIC50 means an inhibitory concentration at the 50% level, which refers to growth in some studies and to a panel of isolates in others. For `NC12CC3CC(F)(CC(C1)c1cc([N+](=O)[O-])ccc13)C2` (stereo not given), in [1], the MIC50 came out at 125 µM (≈ 34.5 µg/mL) and the MIC is under 312 µM.
`O=C(O)c1cn(C2CC2)c2cc(N3CCNCC3)c(F)cc2c1=O` [CIPROFLOXACIN]: the figures for the MIC50 in series [2] (setting [16]) and in [1] were 1.2 µM (≈ 0.398 µg/mL) and 0.3 µM (≈ 0.0994 µg/mL), respectively.
In the case of `CC12CC3CC(N)(CC(C1)c1ccccc13)C2`, the MIC50 result in series [2] is “inactive”. Moreover, in [1], the MIC50 was over 1000 µM.
As for `CC12CC3CC(NCC(N)=O)(CC(C1)c1ccccc13)C2`, in series [2], the MIC50 result was “inactive”. Besides, in series [1], the MIC50 was over 1000 µM.
With `CN(C)C12CC3CC(Cl)(CC(C1)c1ccccc13)C2`, in series [1], the MIC50 was under 625 µM and the MIC is under 1250 µM.
Turning to `CN(C)C12CC3CC(C)(CC(C1)c1ccccc13)O2`, the MIC50 result in series [2] was “inactive”. The molecule also showed an MIC50 in series [1] of over 1000 µM.
In the same order, the values of `CCN(CC)C12CC3CC(C)(CC(C1)c1ccccc13)O2` are “inactive” and over 1000 µM.
Take `Nc1ccc2c(c1)C1CC3(N)CC2CC(F)(C1)C3` (stereo not given): in series [1], the MIC50 was under 375 µM and the MIC was under 1250 µM.
Consider `c1ccc(CN(Cc2ccccc2)C23CC4CC(CC(C2)c2ccccc24)O3)cc1`, for which the MIC50 result in series [2] is “inactive”. Moreover, in [1], the MIC50 was over 1000 µM.
The term CC50 denotes the concentration that lowers cell viability or growth by half. As for `CN(C)C12CC3CC(C1)c1ccccc1C(C3)C2`, in series [2], the MIC50 result is “inactive”. Also, in series [1], the MIC50 came to 304 µM (≈ 73.4 µg/mL) and the MIC was under 625 µM. The “Selectivity Index” value in [3] was found to be 0.15. Besides, the 50% cytotoxic concentration (CC50) in series [4] was found to be 44.5 µM.
With `NNC12CC3CC(CC(C1)c1ccccc13)O2`, the MIC50 result in [2] was “inactive”. Also, the MIC50 in [1] is over 1000 µM.
As to `CN(Cc1ccccc1)C12CC3CC(C)(CC(C1)c1ccccc13)C2`, the MIC50 result in series [2] is “inactive”. The molecule also came in with an MIC50 in series [1] of over 1000 µM.
Consider `NC12CC3CC(CC(C1)c1ccccc13)O2`, for which the MIC50 entry in [2] was “inactive”. Moreover, the MIC50 in series [1] is over 1000 µM.
`c1ccc(CNC23CC4CC(CC(C2)c2ccccc24)O3)cc1`: the MIC50 entry in series [2] is “inactive”. Besides, the MIC50 in [1] is over 1000 µM.
As for `CN(C)C12CC3CC(F)(CC(C1)c1ccccc13)C2`, the MIC50 result in series [2] is “inactive”. In [1], this molecule gave an MIC50 of over 1000 µM.
For the molecule `Cl.NC12CC3CC(Cl)(CC(C1)c1ccccc13)C2`, the MIC50 is 60 µM in series [5]; 75 µM in [6]; 1250 µM in series [2] (setting [16]); 36 µM in series [1]; 60 µM in series [7]; under 125 µM in series [12]. Also, the MIC50 in [13] came out at 75 µM. For the same molecule, the MIC is over 250 µM in series [5] (read-out: MIC100); under 250 µM in series [6] (read-out: MIC100); over 1250 µM in [2] (setting [16]); under 156 µM in [1]; over 250 µM in [7] (read-out: MIC100); over 250 µM in series [12] (read-out: MIC100). Further, in series [13] (read-out: MIC100), the MIC is under 180 µM. Moreover, the outcome in [8] was Active. For the same molecule, the “Selectivity Index” value is reported as 6.05 in series [9]; 4.84 in series [10]; 10.1 in series [3]; 4.84 in series [14]; 6.05 in series [15]. The MBIC50 in series [11] was found to be 45 µM. Besides, the half-maximal cytotoxic concentration (CC50) in series [4] is 363 µM.
As to `NC12CC3CC(C1)c1ccccc1C(C3)C2`, in [2], the MIC50 result is “inactive”. Moreover, in series [1], the MIC50 stood at 17 µM (≈ 3.63 µg/mL) and the MIC is over 39 µM. In addition, in series [3], the “Selectivity Index” value came out at 3.4. Also, the CC50 in series [4] is 58.5 µM.
Take `CN(C)C12CC3CC(F)(CC(C1)c1cc([N+](=O)[O-])ccc13)C2` (stereo not given): in [1], the MIC50 was under 425 µM and the MIC is under 1250 µM.
As to `C#CCNC12CC3CC(CC(C1)c1ccccc13)O2`, the MIC50 entry in [2] was “inactive”. The same molecule registered an MIC50 in series [1] of over 1000 µM.
Taken in the same sequence, the figures for `CN(Cc1ccccc1)C12CC3CC(CC(C1)c1ccccc13)O2` were “inactive” and over 1000 µM.
In the same order, the values of `CC(=O)NC12CC3CC(C)(CC(C1)c1ccccc13)O2` are “inactive” and over 1000 µM.
In the same order, the values of `CC12CC3CC(NCc4ccccc4)(CC(C1)c1ccccc13)C2` are “inactive” and over 1000 µM.
For the molecule `CN(C)C12CC3CC(O)(CC(C1)c1ccccc13)C2`, in series [2] (setting [16]), the MIC50 is under 2500 µM and the MIC is 5000 µM (≈ 1290 µg/mL). Further, in series [1], the MIC50 is over 1000 µM and the MIC was over 10000 µM. Besides, the CC50 in series [4] is over 100 µM.
With `CN(C)C12CC3CC(C)(CC(C1)c1ccccc13)C2`, the MIC50 entry in [2] is “inactive”. For the same molecule, the MIC50 in series [1] is over 1000 µM.
In the case of `NC12CC3CC(F)(CC(C1)c1ccccc13)C2`, in series [2], the MIC50 result is “inactive”. For the same molecule, in [1], the MIC50 was 95 µM (≈ 22 µg/mL) and the MIC was under 312 µM.
